Measurements: patent publication US11571418B2, “Platinum compounds that inhibit constitutive STAT3 signaling and induce cell cycle arrest and apoptosis of malignant cells” (H. LEE MOFFITT CANCER CENTER AND RESEARCH INSTITUTE, INC., priority 2011, dated 2023)

Tested on: constitutively-active Stat3 in NIH3T3/v-Src
Experiment: Constitutive Stat3 DNA-binding activity in treated NIH3T3/v-Src cells (EMSA of nuclear extracts)
Format: cell-based, mouse
Protocol: FIGS. 3A-3D. Inhibition of Stat3-mediated gene expression by PLATINUM-401. (FIG. 3A) and (FIG. 3B) v-Src-transformed mouse fibroblasts that stably express Stat3-dependent (NIH3T3/v-Src/pLucTKS3) and Stat3-independent (NIH3T3/v-Src/pRLSRE) luciferase reporters or β-galactosidase (β-gal), as well as normal mouse fibroblast (NIH3T3) transiently transfected with pLucTKS3, pGL2-VEGF-Luc, NFkB-Luc or pLucSRE together with or without v-Src were treated with or without PLATINUM-401 for 48 h. Cytosolic extracts were then prepared from cells for luciferase and […] activities measurements. Values are the means and S.D. of three to five independent assays; (FIG. 3C) and (FIG. 3D) Nuclear extracts or whole cell lysates were prepared from IL-6-stimulated normal mouse fibroblasts (NIH3T3) or their v-Src-transformed counterpart (NIH3T3/v-Src) that are treated with or without PLATINUM-401 for different times. Samples of equal total proteins were then subjected to in vitro DNA-binding activity and EMSA analysis or for SDS-PAGE and Western blot analysis for phosphorylated and total Stat3.
Nuclear extract preparation and gel shift assays—Nuclear extract preparation from NIH3T3 stimulated by rhIL-6, NIH3T3/hEGFR stimulated by rhEGF, v-Src-transformed fibroblasts (NIH3T3/v-Src) or tumor cell lines and electrophoretic mobility shift assay were carried out as previously described (Turkson et al., 1998; Garcia et al., 1997; Yu et al., 1995). The ^32P-labeled oligonucleotide probes used are hSIE (high affinity sis-inducible element from the c-fos gene, m67 variant, 5′-[…]) (SEQ ID NO:1) that binds Stat1 and Stat3 (Garcia et al., 1997; Wagner et al., 1990) and MGFe (mammary gland factor element from the bovine β-casein gene promoter, 5′-AGATTTCTAGGAATTCAA) (SEQ ID NO:2) for Stat1 and Stat5 binding (49,50). Except where indicated, inhibitor compound was pre-incubated with the nuclear extract for 30 min at room temperature prior to incubation with radiolabeled probe.
To further investigate the activities of PLATINUM-401, the inventors treated malignant cells and measured effects on Stat3 signaling. […] Taken together with the results in FIG. 1, these findings indicate that PLATINUM-401 blocks the binding of activated Stat3 to its responsive elements in the promoters of target genes. Moreover, in a time- and dose-dependent manner, PLATINUM-401 inhibits the constitutive or ligand-induced activation of Stat3 DNA-binding activity (FIG. 3C), as well as tyrosine phosphorylation in mouse fibroblasts (FIG. 3D and data not shown). […] Changes in Stat3 protein levels were minimal. […] Results together indicate that at the 5-10 μM PLATINUM-401 that inhibits intracellular Stat3 signaling, there is no observable non-specific effect on non-Stat3 related pathways investigated here.
To further elucidate the interaction between Stat3 and PLATINUM-401, v-Src-transformed mouse fibroblasts were transfected with Stat3 protein and then used to investigate PLATINUM-401 activity. The transfection of wild-type Stat3 into the v-Src-transformed fibroblasts results in higher Stat3 DNA-binding activity over that of parentals, as measured by in vitro DNA-binding activity and EMSA analysis (FIG. 7C, left panel, lanes 3 and 6 versus 1 and 2). This is due to the increased expression of Stat3 protein and the consequent phosphorylation by oncogenic Src tyrosine kinase that is present in these cells.

Question: What does the source list for `CC(O)CN1CCN(CC(C)O)CC1` (centres unmarked) [PLATINUM-401]?
Answer: constitutively-active Stat3 DNA-binding activity, cells transfected with wild-type Stat3 (NIH3T3/v-Src transfected with exogenous wild-type Stat3, 5 μM, 36 h): no significant reduction; time required for significant inhibition of constitutively-active Stat3 (NIH3T3/v-Src, data not shown): > 12 h; concentration that inhibits intracellular Stat3 signaling (mouse fibroblasts): 5 to 10 µM; constitutively-active Stat3 DNA-binding activity, mock-transfected cells (parental, mock-transfected NIH3T3/v-Src, 5 μM, 36 h): significant reduction; constitutive activation of Stat3 DNA-binding activity (time- and dose-dependent): inhibits
